The results in this text go back to PMC6219668 (Oncotarget, 2018).

Read-outs that look alike come from different tables or passages of the source.

For orientation: IC50 means the concentration at which inhibition is half-maximal.

The test system of one assay is KYSE450. In words: cells. In kind it is cell-based. To be noted: Homo sapiens, KYSE-450; KYSE450, 72 h.
The subject of a further assay is NCI-H1573. Kind of assay: cells. The assay is classed as cell-based. To be noted: Homo sapiens, NCI-H1573, 72 h.
For the next assay, the system named is KELLY. In words: cells. The settings on record: 72 h. In kind it is cell-based.
In the next assay the test system is MGH051. In words: cells. To be noted: MGH051, 72 h. The assay is classed as cell-based.
For the next assay, the system named is A2058. In words: cells. In kind it is cell-based. The settings on record: Homo sapiens, A2058, 72 h.
The next assay has as its system HPAX1317. In kind it is in vivo. The settings on record: HPAX1317, Pancreatic, Rb present; 250 mg/kg qd.
A further assay relates to MGH049. In words: cells. To be noted: MGH049, 72 h. In kind it is cell-based.
For assay [1], the system named is SK-MEL-30. Kind of assay: cells. The settings on record: Homo sapiens, SK-MEL-30, 72 h. In kind it is cell-based.
The test system of another assay is Hs 944.T. The assay is classed as in vivo. The settings on record: Melanoma.
For assay [2], the system named is KYSE30. In words: cells. In kind it is cell-based. The settings on record: Homo sapiens, KYSE-30; KYSE30, 72 h.
The test system of a further assay is NCI-H1975. Kind of assay: cells. In kind it is cell-based. To be noted: Homo sapiens, NCI-H1975, 72 h.
The test system of a further assay is T-47d. In words: cells. The assay is classed as cell-based. To be noted: Homo sapiens, T47D, 72 h.
The test system of assay [3] is SK-MEL-30. Kind of assay: cells. In kind it is cell-based. The settings on record: Homo sapiens, SK-MEL-30, 72 h. The source holds these as a separate data set.
In another assay the test system is WM-115. In words: cells. To be noted: Homo sapiens, WM-115, 72 h. The assay is classed as cell-based.
Assay [4] relates to KYSE30. Kind of assay: cells. The assay is classed as cell-based. To be noted: Homo sapiens, KYSE-30; KYSE30, 72 h. The source holds these as a separate data set.
For a further assay, the system named is HBCx-10. In kind it is in vivo. The settings on record: HBCx-10, Breast, TNBC, Rb absent; 125 mg/kg bid × 21.
Another assay has as its system JeKo-1. Kind of assay: cells. In kind it is cell-based. To be noted: Homo sapiens; JeKo-1, MCL, dominant CDK4; read-out: IC50, mean ± SD.
A further assay has as its system T47D. In words: cells. The assay is classed as cell-based. To be noted: Homo sapiens, ER+ BC, dominant CDK4, read-out: IC50, mean ± SD.

With `CN(C)C(=O)c1cc2cnc(Nc3ccc(N4CCNCC4)cn3)nc2n1C1CCCC1` [Ribociclib, 7-cyclopentyl-2-(5-piperazin-1-yl-pyridin-2-ylamino)-7H-pyrrolo[2,3-d]pyrimidine-6-carboxylic acid dimethylamide], the IC50 with KYSE450 is more than 10 µM; with NCI-H1573, more than 10 µM; in the assay with KELLY it was 0.27 µM; in the assay with MGH051 it was 0.28 µM; in the assay on A2058, more than 10 µM; with MGH049, 0.54 µM. Moreover, the IC50 in the assay with SK-MEL-30 [1] is more than 10 µM; with KYSE30 [2], more than 10 µM; in the assay on NCI-H1975 it was 3.53 µM; in the assay on T-47d, more than 10 µM; in the assay on SK-MEL-30 [3], 1 µM; with WM-115 it was more than 10 µM. This compound had an IC50 in the assay on KYSE30 [4] of 4.06 µM. Also, the T/C is listed as 32 in the assay with HPAX1317, 36 in the assay on Hs 944.T (150 mg/kg qd), 19 in the assay on Hs 944.T (250 mg/kg qd) and 82 in the assay with HBCx-10.

On to `CC(=O)c1c(C)c2cnc(Nc3ccc(N4CCNCC4)cn3)nc2n(C2CCCC2)c1=O` [Palbociclib, reference compound], for which the IC50 was 72 ± 33 µM with JeKo-1 and 66 ± 19 µM with T47D.
